Data on 60 compounds can be found in ChEMBL document CHEMBL3988442, “University of Dundee, Small-Polar-MMV Screening Library” (2021).

Experiment [1] can be described thus: microbe, parasite or virus in culture. The settings on record: Mycobacterium tuberculosis, 96 h, read-out: pIC50 (converted).
Experiment [2] is described as follows: microbe, parasite or virus in culture. The settings on record: Mycobacterium tuberculosis, 72 h, read-out: pIC50 (converted).

For the compound `N#Cc1nc(NCCSCCCO)ccc1Cl`, the figures for the IC50 in experiment [1] and in experiment [2] were 418 µM and 221 µM, respectively.
Taken in the same sequence, the figures for `O=C(COC(=O)c1cccs1)NCc1ccco1` were over 501 µM and 204 µM.
For `O=C(Nc1cc(Cl)ccc1F)C1=COCCO1` the same measures were 265 µM and 228 µM.
For `CCS(=O)(=O)c1ccc(CNc2ncccc2Cl)cc1` the same measures were over 501 µM and 242 µM.
On to `O=C(CCCc1ccccc1)NCc1ccccn1`, for which the IC50 in experiment [1] was 234 µM; in experiment [2], 168 µM.
Taken in the same sequence, the figures for `N#Cc1cc(Br)ccc1NCCC(=O)N1CCOCC1` were over 501 µM and 165 µM.
On to `CC(C)N(CCNc1nc(C2CCCC2)nc2c1cnn2C)C(C)C`, for which the IC50 is 18.7 µM in experiment [1] and 20.6 µM in experiment [2].
Take `Cn1cc(NC(=O)CNC(=O)N2CCN(c3ccccc3)CC2)cn1`: the IC50 in experiment [1] and in experiment [2] was over 50.1 µM throughout.
With `FC(F)(F)c1ccc2nc([C@H]3CCN(C4CCCCC4)C3)[nH]c2c1`, the IC50 was 24.9 µM in experiment [1] and 27.5 µM in experiment [2].
Taken in the same sequence, the figures for `CN(Cc1ccc(Cl)s1)C(=O)C1CCN(C(N)=O)CC1` were over 501 µM and over 501 µM.
For `O=C(NCC1COCCO1)c1cnc2ccccc2c1` (stereo not given) the same measures were over 501 µM and over 501 µM.
For `Cc1noc(C(C)Nc2ccc3c(c2)CCC3)n1` (stereo not given) the same measures were 3.32 µM and 5.68 µM.
On to `OCCCC(Nc1ccccn1)c1ccccc1` (stereo not given), for which the IC50 was 111 µM in experiment [1] and 109 µM in experiment [2].
For `O=C(c1cc[nH]n1)N1CCCC(c2cccc(-n3ccnc3)n2)C1` (stereo not given) the same measures were over 50.1 µM and over 50.1 µM.
Take `Cc1cccc(OCC(O)CNc2ncccc2F)c1` (stereo not given): the IC50 in experiment [1] was 11.6 µM; in experiment [2] it was 19.7 µM.
For `CN(C)CC(=O)N1CCC2(CCc3cc(-c4cccnc4)ccc32)CC1` the same measures were over 50.1 µM and over 50.1 µM.
For `CN1CCCN(Cc2cc(F)cc(F)c2)CC1=O` the same measures were 211 µM and 169 µM.
Turning to `COCc1cccc(C(=O)N2CCCC2)c1`, the IC50 in experiment [1] is over 50.1 µM; in experiment [2], 16.3 µM.
For `COc1cccc(CNCc2cccnc2-n2cccn2)c1OC` the same measures were over 50.1 µM and over 50.1 µM.
Taken in the same sequence, the figures for `CN(Cc1ccco1)C(=O)CN1CCc2sccc2C1` were 89.2 µM and 60 µM.
For `Cc1nn(CCCN)c(C)c1Br` the same measures were over 501 µM and 266 µM.
In the case of `CC(C)c1cc(C(=O)N2CC(c3ccccn3)C2)no1`, the results for the IC50 in experiment [1] and in experiment [2] were 60.5 µM and 70.5 µM, respectively.
For `CN(Cc1ccco1)C(=O)CCc1ccc(C#N)cc1` the same measures were 77.4 µM and 31.7 µM.
For `O=S(=O)(CCc1ccccc1)Cc1nc(C2CC2)no1` the same measures were 10.7 µM and 10.6 µM.
As for `COCCNC(=O)Nc1ccc(OC(F)F)c(F)c1`, the IC50 in experiment [1] was 253 µM; in experiment [2] it was 273 µM.
For `Cc1ncsc1C(=O)NC(C)C(C)C` (stereo not given) the same measures were over 501 µM and over 501 µM.
Taken in the same sequence, the figures for `CC1=CC(=O)N(Cc2ccccc2)C1=O` were 81.5 µM and 49.8 µM.
Taken in the same sequence, the figures for `CC(C)(O)Cn1nnc(-c2cccs2)n1` were over 501 µM and over 501 µM.
As to `O=C(c1cccc2cn[nH]c12)N1CCCC1CO` (stereo not given), the IC50 in experiment [1] and in experiment [2] was over 501 µM each time.
For `COc1ccc(C(=O)Nc2nonc2NC(C)=O)cc1`, the IC50 in experiment [1] is 96.4 µM; in experiment [2] it was over 501 µM.
Taken in the same sequence, the figures for `CCOC(=O)c1cnn(-c2ccc(OCC)cc2)c1N` were 53.9 µM and 81.7 µM.
Taken in the same sequence, the figures for `CCCOc1cc(CNC(=O)c2csnc2C)ccn1` were 215 µM and 350 µM.
Taken in the same sequence, the figures for `Cc1ccc(NC2CCN(C(=O)C(C)n3cncn3)CC2)nn1` (stereo not given) were over 50.1 µM and over 50.1 µM.
On to `O=C(c1ccc(Br)o1)N1CCN(Cc2ccco2)CC1`, for which the values for the IC50 in experiment [1] and in experiment [2] were 92 µM and 97.2 µM, respectively.
For `O=C(NC1CCCNC1)c1coc2ccccc12` (stereo not given) the same measures were over 501 µM and over 501 µM.
For `Cc1nc(C(=O)NCCN2CCCC2)c(C)s1` the same measures were over 501 µM and 308 µM.
Taken in the same sequence, the figures for `CN(CCC#N)C(=O)COC(=O)c1ccccc1Br` were over 501 µM and 139 µM.
For `O=C1NCC(C(=O)NCCCc2ccc(Cl)cc2)N1` (stereo not given), the IC50 in experiment [1] and in experiment [2] was over 501 µM throughout.
For the compound `CNCC(=O)NCCc1c(OC)ccc2ccccc12`, the IC50 was over 501 µM in experiment [1] and 411 µM in experiment [2].
For `CNC(=O)c1cc(-c2ccccc2C)n[nH]1` the same measures were 180 µM and over 501 µM.
Take `CCOc1ccc(CNC(=O)CCn2cccn2)cc1`: the results for the IC50 in experiment [1] and in experiment [2] were over 501 µM and 148 µM, respectively.
Taken in the same sequence, the figures for `Cc1ccc(C(=O)CCN2CCOCC2C(N)=O)cc1` (stereo not given) were 152 µM and 59 µM.
For `O=C(c1ncoc1C1CC1)N1CCCN(CCCc2ccccc2)CC1` the same measures were over 50.1 µM and over 50.1 µM.
As for `COc1cccc(OCC(=O)NCC2CCCO2)c1` (stereo not given), the IC50 is 145 µM in experiment [1] and 194 µM in experiment [2].
Taken in the same sequence, the figures for `CNC(=O)C(C)(C)Oc1cccc(Cl)c1` were over 501 µM and over 501 µM.
For `CC(C)n1cc(Br)cc1C(=O)NC1=NCCS1` the same measures were over 501 µM and 177 µM.
For `CNCC(=O)NC(C)c1nc(-c2ccc(Br)cc2)no1` (stereo not given) the same measures were 261 µM and 197 µM.
For `CCc1nc(CN2CCCN(Cc3noc(C4CC4)n3)CC2)cs1`, the IC50 in experiment [1] and in experiment [2] was over 50.1 µM each time.
Consider `CCCc1nc(CN2Cc3ncccc3C2=O)cs1`, for which the IC50 in experiment [1] is 119 µM; in experiment [2], 120 µM.
Taken in the same sequence, the figures for `CC(=O)N1CCC[C@H]1C(=O)NCCc1csc(C)n1` were over 501 µM and over 501 µM.
Turning to `COCCCNC(=O)c1ccn(-c2ccc(F)cc2)n1`, the IC50 was 154 µM in experiment [1] and 114 µM in experiment [2].
Regarding `O=C(NCc1ccc2c(c1)OCCCO2)c1cscn1`, the IC50 in experiment [1] was 111 µM; in experiment [2], 107 µM.
For `CCN1CCN(Cc2nc(-c3ccccc3)no2)CC1` the same measures were over 501 µM and over 501 µM.
Take `Cc1ccc(CNC(=O)c2cnn(C)c2)cc1F`: the values for the IC50 in experiment [1] and in experiment [2] were over 501 µM and 275 µM, respectively.
In the case of `O=C(NC1CCCCC1)c1ccc(CO)cc1`, the IC50 is 143 µM in experiment [1] and 161 µM in experiment [2].
For `CCNC(=O)CNc1ccc(Br)cc1` the same measures were 210 µM and 162 µM.
Regarding `CCC(CO)Nc1ncc(C(F)(F)F)cc1Cl` (stereo not given), the IC50 in experiment [1] and in experiment [2] was over 501 µM throughout.
Turning to `CSc1nccc(N2CCC3(CCCN(Cc4ccc(F)cc4)C3)C2)n1` (stereo not given), the IC50 in experiment [1] was 25.2 µM; in experiment [2], 27.2 µM.
For `CCCC(C)N(C)Cc1nnc(-c2ccco2)o1` (stereo not given) the same measures were 29.5 µM and 5.32 µM.
For `CC1CN(CCC(=O)NCc2cccs2)CCCO1` (stereo not given) the same measures were over 501 µM and over 501 µM.
